Data taken from ChEMBL document CHEMBL5046269, “Multifunctional P450 Monooxygenase CftA Diversifies the Clifednamide Pool through Tandem C-H Bond Activations” (2022).

Legend:
Format in all cases: functional
Staphylococcus aureus = experiment: Antibacterial activity against Staphylococcus aureus ATCC 11632 assessed as inhibition of bacterial growth measured after 18 hrs by CLSI protocol based microbroth dilution method
Candida albicans = experiment: Antifungal activity against Candida albicans ATCC 48130 assessed as inhibition of fungal growth measured after 18 hrs by CLSI protocol based microbroth dilution method
Micrococcus luteus = experiment: Antibacterial activity against Micrococcus luteus ATCC 10240 assessed as inhibition of bacterial growth measured after 18 hrs by CLSI protocol based microbroth dilution method
Bacillus subtilis = experiment: Antibacterial activity against Bacillus subtilis ATCC 6633 assessed as inhibition of bacterial growth measured after 18 hrs by CLSI protocol based microbroth dilution method

Measured: MIC90

CC[C@H]1[C@@H]2C=C[C@@H]3[C@H]4C/C=C\C(=O)NCCC[C@@H]5NC(=O)C(=C5O)C(=O)/C=C/[C@@H]4C[C@@H]3[C@H]2C[C@H]1C
22.4 µM: all assays above
